Source: patent US20220054477A1, “INDUCTION OF SUSTAINED LOCAL INFLAMMATION” (Ascendis Pharma Oncology Division A/S, priority 2019, published 2022)
Marks after values point to notes of the source that are not given here.

Tests used:
Cxcl10 = assay: PBMC gene expression (qPCR, 6 hours post-treatment): Cxcl10 (Example 17); format: in vivo, BALB/C mice
Procedure: (§1) Hydrogels were administered as suspensions in PTP buffer. […] Tumors were excised, weighed and snap frozen.
(§2) For PBMC isolations, approximately 600 μl of whole blood was collected via cardiac puncture. The collected whole blood from each individual mouse was diluted with a 1:1 ratio of pre-warmed PBS supplemented with 2% Fetal Bovine Serum (FBS). Then an equal volume of Histopaque-1083 was added to a new sterile 15 mL conical tube, where the diluted whole blood was layered over the Histopaque-1083. The mixture was then centrifuged at 400 g for 30 minutes. […]
(§3) Lysates from untreated control samples and 6 hour treated samples were thawed and RNA was isolated using the RNeasy Mini Kit (QIAGEN) following manufacturer's recommendations. […] RNA concentrations were measured using a NanoDrop (ThermoFisher) and then adjusted to […] with RNase-free water. RNA quality was assessed using a NanoDrop (ThermoFisher). […] 200 ng of cDNA was used for quantitative PCR using the RT^2 SYBR Green ROX qPCR Master mix (2×) kit (QIAGEN) following manufacturer's recommendations. […]
(§4) Cycle thresholds (CT) were collected using a 384-well platform ABI-7900H real-time qPCR system (Applied Biosystems). […] 2^ΔΔCT values were calculated with the following formula: […]
(§5) For each gene, 3 technical replicates were analyzed per biological replicate. Undetermined technical replicate CT values were recorded as zero ΔCT values. […]

CD8+ T cells = assay: Flow cytometry of tumor draining lymph nodes: frequency of CD8+ T cells of CD3+ T cells (Example 15); format: in vivo, BALB/C mice; conditions: 7 days after randomization
Procedure: (§6) Hydrogels were administered as suspension in PTP buffer. Some cohorts were further treated with 20 μg human IL-2 (Peprotech, Rocky Hill, N.J.), intraperitoneally (I.P.), twice a day for 5 days. Mice were sacrificed 7 days after randomization (D0). Following sacrifice, tumor draining lymph nodes were isolated from both flanks and were dissociated mechanically to generate a single cell suspension at a cell concentration of 1×10^6 cells per sample. Cell suspensions were centrifuged at 300 g for 5 minutes. Supernatants were discarded and cells were resuspended in FACS buffer with 1 μg/ml Fc-Block and incubated at 4° C. for 10 minutes in the dark. Surface marker antibody mixtures (antibody concentration: 10 μg/mL) in FACS buffer were added to each sample and samples were incubated in the dark at 4° C. for 30 minutes. Cells were centrifuged at 300 g for 5 minutes and supernatants were discarded. Cells were washed and then resuspended with FACS buffer before cytometer collection.
(§7) After collection, FACS data was analyzed using FlowJo Version 10.6.1. Compensation was digitally adjusted using single antibody-stained beads. Samples with less than 90% viability, as determined by LiveDead cell staining, were excluded from the analysis. […]

Ccl2 = assay: PBMC gene expression (qPCR, 6 hours post-treatment): Ccl2 (Example 17); format: in vivo, BALB/C mice
Procedure: as §1, §2, §3, §4, §5

Cxcl1 = assay: PBMC gene expression (qPCR, 6 hours post-treatment): Cxcl1 (Example 17); format: in vivo, BALB/C mice
Procedure: as §1, §2, §3, §4, §5

Ly-6C+ CD8+ T cells = assay: Flow cytometry of tumor draining lymph nodes: frequency of Ly-6C+ T cells of CD8+ T cells (Example 15); format: in vivo, BALB/C mice; conditions: 7 days after randomization
Procedure: as §6, §7

IL-6 = assay: In vivo cytokine induction, plasma cytokine levels: IL-6 (Example 12); set-up: species or system BALB/C mice; conditions: single intratumoral dose
Procedure: (§8) Mice were subcutaneously implanted with 3×10^5 CT26 tumor cells in the left and right flanks. […] Hydrogels were administered as suspensions in PBST buffer. K2 EDTA-preserved blood samples were collected by retro-orbital bleed at various time points following drug administration and plasma was isolated following centrifugation at 2000×g for 5 minutes at 4° C. and frozen. Plasma samples were stored at −80° C. Plasma was thawed and undiluted samples were assessed for cytokine levels using the 36-Plex Mouse ProcartaPlex™ Cytokine Panel 1A (ThermoFisher Scientific) following manufacturer's recommendations. Cytokines were measured on the Bio-Plex 200 (BioRad) following kit instructions. For sample values below or at the lower limit of quantitation (LLOQ) of the assay, a value of 0.01 pg/mL was instead used in determining mean cytokine concentrations.

Cxcl2 = assay: PBMC gene expression (qPCR, 6 hours post-treatment): Cxcl2 (Example 17); format: in vivo, BALB/C mice
Procedure: as §1, §2, §3, §4, §5

[1] = system: Ly-6C+ MHCII+ antigen presenting cells; assay: Flow cytometry of tumor draining lymph nodes: frequency of IA-IE (MHCII)+ antigen presenting cells of Ly-6C+ antigen presenting cells (Example 15); format: in vivo, BALB/C mice; conditions: 7 days after randomization
Procedure: as §6, §7

[2] = set-up: species or system WISTAR rats; conditions: rat, in vivo, sc, 25 ug
Source text: Hydrogels were suspended (ca. 6% wt/v) PBST buffer at pH 7.4. […] Blood samples were withdrawn and used for plasma generation over the course of 28 d. […] Plasma concentration profiles were generated and analyzed with Phoenix WinNonlin software (Certara, Princeton, N.J., USA).

Tnf = assay: PBMC gene expression (qPCR, 6 hours post-treatment): Tnf (Example 17); format: in vivo, BALB/C mice
Procedure: as §1, §2, §3, §4, §5

TNFα = assay: In vivo cytokine induction, plasma cytokine levels: TNFα (Example 12); set-up: species or system BALB/C mice; conditions: single intratumoral dose
Procedure: as §8

Ifna4 = assay: PBMC gene expression (qPCR, 6 hours post-treatment): Ifna4 (Example 17); format: in vivo, BALB/C mice
Procedure: as §1, §2, §3, §4, §5

Il1a = assay: PBMC gene expression (qPCR, 6 hours post-treatment): Il1a (Example 17); format: in vivo, BALB/C mice
Procedure: as §1, §2, §3, §4, §5

Il1b = assay: PBMC gene expression (qPCR, 6 hours post-treatment): Il1b (Example 17); format: in vivo, BALB/C mice
Procedure: as §1, §2, §3, §4, §5

CT26 tumor cells = assay: In vivo anti-tumor efficacy, CT26 tumor volumes (Example 11); set-up: species or system BALB/C mice; conditions: single intratumoral dose
Procedure: Mice were subcutaneously implanted with 3×10^5 CT26 tumor cells in the left and right flanks. […] Hydrogels were administered as suspensions in PBST buffer. Following treatment initiation, anti-tumor efficacy was assessed by determination of tumor volumes at various time points from tumor size measurements with a caliper. Tumor volumes were calculated according to the formula: […]
where L is the length of the tumor and W the width (both in mm). Mice were removed from the study once tumors were greater than 1500 mm^3.

Ccl4 = assay: PBMC gene expression (qPCR, 6 hours post-treatment): Ccl4 (Example 17); format: in vivo, BALB/C mice
Procedure: as §1, §2, §3, §4, §5

CCL2/MCP-1 = assay: In vivo cytokine induction, plasma cytokine levels: CCL2/MCP-1 (Example 12); set-up: species or system BALB/C mice; conditions: single intratumoral dose
Procedure: as §8

Ccl3 = assay: PBMC gene expression (qPCR, 6 hours post-treatment): Ccl3 (Example 17); format: in vivo, BALB/C mice
Procedure: as §1, §2, §3, §4, §5

[3] = system: Ly-6C+ antigen presenting cells; assay: Flow cytometry of tumor draining lymph nodes: frequency of Ly-6C+ antigen presenting cells of non-T cells (Example 15); format: in vivo, BALB/C mice; conditions: 7 days after randomization
Procedure: as §6, §7

IFNγ = assay: In vivo cytokine induction, plasma cytokine levels: IFNγ (Example 12); set-up: species or system BALB/C mice; conditions: single intratumoral dose, values at or below LLOQ set to 0.01
Procedure: as §8

Il10 = assay: PBMC gene expression (qPCR, 6 hours post-treatment): Il10 (Example 17); format: in vivo, BALB/C mice
Procedure: as §1, §2, §3, §4, §5

CD4+ T cells = assay: Flow cytometry of tumor draining lymph nodes: frequency of CD4+ T cells of CD3+ T cells (Example 15); format: in vivo, BALB/C mice; conditions: 7 days after randomization
Procedure: as §6, §7

Resiquimod [Compound 4]
Cxl10 Mean (2^ΔΔCT) (Cxcl10): 45.38
Cxl10 Fold change (4/13i) (Cxcl10; ratio of 4 to 13i): 21.41
Frequency of CD8+ T cells of CD3+ T cells, Mean (CD8+ T cells; injected right flank tumor): 29.23%
Frequency of CD8+ T cells of CD3+ T cells, Mean (CD8+ T cells; uninjected left flank tumor): 29%
Ccl2 Mean (2^ΔΔCT) (Ccl2): 6.75
Ccl2 Fold change (4/13i) (Ccl2; ratio of 4 to 13i): 2.82
Cxcl1 Mean (2^ΔΔCT) (Cxcl1): 7.41
Cxcl1 Fold change (4/13i) (Cxcl1; ratio of 4 to 13i): 11.54
Frequency of Ly-6C+ T cells of CD8+ T cells, Mean (Ly-6C+ CD8+ T cells; injected right flank tumor): 53.7%
Frequency of Ly-6C+ T cells of CD8+ T cells, Mean (Ly-6C+ CD8+ T cells; uninjected left flank tumor): 48%
IL-6 plasma level, Mean (IL-6; 1 h post-treatment): 3618.87†, ‡ pg/mL
IL-6 plasma level, Mean (IL-6; 3 h post-treatment): 1739.75†, ‡ pg/mL
IL-6 plasma level, Mean (IL-6; 6 h post-treatment): 88.59 pg/mL
IL-6 plasma level, Mean (IL-6; 10 h post-treatment): 154.51 pg/mL
IL-6 plasma level, Mean (IL-6; 24 h post-treatment): 44.71 pg/mL
Cxcl2 Mean (2^ΔΔCT) (Cxcl2): 35.37
Cxcl2 Fold change (4/13i) (Cxcl2; ratio of 4 to 13i): 6.43
Frequency of IA-IE (MHCII)+ antigen presenting cells of Ly-6C+ antigen presenting cells, Mean ([1]; injected right flank tumor): 69.63%
Frequency of IA-IE (MHCII)+ antigen presenting cells of Ly-6C+ antigen presenting cells, Mean ([1]; uninjected left flank tumor): 35.05%
AUCPred-∞ [2]: 65.4 ng·h/mL
Cmax [2]: 23.1 ng/mL
t1/2 (biphasic), first value [2]: 1.5 h
t1/2 (biphasic), second value [2]: 10 h
Tnf Mean (2^ΔΔCT) (Tnf): 4.64
Tnf Fold change (4/13i) (Tnf; ratio of 4 to 13i): 4.45
TNFα plasma level, Mean (TNFα; 1 h post-treatment): 830.84 pg/mL
TNFα plasma level, Mean (TNFα; 3 h post-treatment): 136.25 pg/mL
TNFα plasma level, Mean (TNFα; 6 h post-treatment): 35.49 pg/mL
TNFα plasma level, Mean (TNFα; 10 h post-treatment): 43.32 pg/mL
TNFα plasma level, Mean (TNFα; 24 h post-treatment): 9.74 pg/mL
Ifna4 Mean (2^ΔΔCT) (Ifna4): 2.97
Ifna4 Fold change (4/13i) (Ifna4; ratio of 4 to 13i): 20.48
Il1a Mean (2^ΔΔCT) (Il1a): 0.41
Il1a Fold change (4/13i) (Il1a; ratio of 4 to 13i): 1.78
Il1b Mean (2^ΔΔCT) (Il1b): 3.71†
Il1b Fold change (4/13i) (Il1b; ratio of 4 to 13i): 7.92
Absolute tumor volume, Mean (CT26 tumor cells; day 0 post-treatment): 88.82 mm^3
Absolute tumor volume, Mean (CT26 tumor cells; day 2 post-treatment): 108.44 mm^3
Absolute tumor volume, Mean (CT26 tumor cells; day 4 post-treatment): 128.42 mm^3
Absolute tumor volume, Mean (CT26 tumor cells; day 7 post-treatment): 316.07 mm^3
Absolute tumor volume, Mean (CT26 tumor cells; day 9 post-treatment): 549.72 mm^3
Absolute tumor volume, Mean (CT26 tumor cells; day 11 post-treatment): 957.90 mm^3
Absolute tumor volume, Mean (CT26 tumor cells; day 14 post-treatment): 1220.96 mm^3
Ccl4 Mean (2^ΔΔCT) (Ccl4): 1.31
Ccl4 Fold change (4/13i) (Ccl4; ratio of 4 to 13i): 1.74
CCL2/MCP-1 plasma level, Mean (CCL2/MCP-1; 1 h post-treatment): 357.83 pg/mL
CCL2/MCP-1 plasma level, Mean (CCL2/MCP-1; 3 h post-treatment): 4230.35†, ‡ pg/mL
CCL2/MCP-1 plasma level, Mean (CCL2/MCP-1; 6 h post-treatment): 1039.17†, ‡ pg/mL
CCL2/MCP-1 plasma level, Mean (CCL2/MCP-1; 10 h post-treatment): 847.07† pg/mL
CCL2/MCP-1 plasma level, Mean (CCL2/MCP-1; 24 h post-treatment): 92.58 pg/mL
Ccl3 Mean (2^ΔΔCT) (Ccl3): 1.43†
Ccl3 Fold change (4/13i) (Ccl3; ratio of 4 to 13i): 1.64
Frequency of Ly-6C+ antigen presenting cells of non-T cells, Mean ([3]; injected right flank tumor): 2.5%
Frequency of Ly-6C+ antigen presenting cells of non-T cells, Mean ([3]; uninjected left flank tumor): 7.8%
IFNγ plasma level, Mean (IFNγ; 1 h post-treatment): 4.04 pg/mL
IFNγ plasma level, Mean (IFNγ; 3 h post-treatment): 15.49†, ‡ pg/mL
IFNγ plasma level, Mean (IFNγ; 6 h post-treatment): 40.72†, ‡ pg/mL
IFNγ plasma level, Mean (IFNγ; 10 h post-treatment): 28.19†, ‡ pg/mL
IFNγ plasma level, Mean (IFNγ; 24 h post-treatment): 2.38 pg/mL
Il10 Mean (2^ΔΔCT) (Il10): 2.77†
Il10 Fold change (4/13i) (Il10; ratio of 4 to 13i): 2.29
Frequency of CD4+ T cells of CD3+ T cells, Mean (CD4+ T cells; injected right flank tumor): 69.1%
Frequency of CD4+ T cells of CD3+ T cells, Mean (CD4+ T cells; uninjected left flank tumor): 69.25%
